Data: patent publication US20140004223A1, “MOUTH-MOISTENING GUM COMPOSITIONS AND PRODUCTS CONTAINING THE SAME” (Three Parkway North, priority 2010, published 2014)

Tests used:
water solubility = format: physicochemical
Description: In some embodiments, one or more ingredients may be encapsulated with an encapsulating material can also modify the release profile of the ingredient.

[1] = taste testing of synthetic compound versus plant extracts; format: in vivo; details: based on taste testing, compared with some comparable plant extracts
Description: Synthetic (2E,5Z,8E)-deca-2,6,8-trienoic acid N-isobutyl amide, being more pure than botanical sources, can be distinguished to some extent based on taste sensations. Synthetic (2E,5Z,8E)-deca-2,6,8-trienoic acid N-isobutyl amide can have a purity of at least about 90 percent. In some embodiments, synthetic (2E,5Z,8E)-deca-2,6,8-trienoic acid N-isobutyl amide can provide relatively higher mouth-moistening relative to tingling or heating/cooling sensations, compared to, for example, equivalent amounts of spilanthol in jambu. […] In one embodiment a combination of synthetic (2E,5Z,8E)-deca-2,6,8-trienoic acid N-isobutyl amide and a affinin plant extract is used. For example, within the given range of 75 to 300 ppm the affinin compound, the amount of affinin active provided by synthetic (2E,5Z,8E)-deca-2,6,8-trienoic acid N-isobutyl amide can vary from 20 to 80 wt. % and the amount of (2E,5Z,8E)-deca-2,6,8-trienoic acid N-isobutyl amide provided by plant extract of Heliopsis Longipes can vary from 80 to 20 wt. %.

water solubility (water solubility): not water soluble
SMILES: C/C=C/C=C\CC/C=C/C(=O)NCC(C)C [affinin compound, (2E,5Z,8E)-deca-2,6,8-trienoic acid N-isobutyl amide]
taste profile / tingling [1]: a cleaner profile and/or less tingling
